The subject of the assay is B6C3F1 mice, colon carcinoma 38 s.c., T/C. The assay can be described thus: NCI In Vivo Anticancer Drug Screen. Data for tumor model Colon Carcinoma 38 (subcutaneous) in B6C3F1 mice. To be noted: higher = larger tumour. On the procedure: The antitumor activity of compounds was measured in mice bearing transplantable tumors. Survival or tumor size were measured and the results are expressed as the measurement made in the treated group (T) divided by the measurement made in the vehicle treated control group (C). The tumor model used in this assay is Colon Carcinoma 38 (subcutaneous) in B6C3F1 mice

Setting [1] is: endpoint: median tumor weight (est.), dose: 50.0 mg/kg/injection, schedule: Q07DX002 (ip), vehicle: Klucel (hydroxypropylcellulose) (HPC).
Setting [2] is: endpoint: median tumor weight (est.), dose: 100.0 mg/kg/injection, schedule: Q07DX002 (ip), vehicle: Klucel (hydroxypropylcellulose) (HPC).
The mark [3] stands for this setting: endpoint: median tumor weight (est.), dose: 200.0 mg/kg/injection, schedule: Q07DX002 (ip), vehicle: Klucel (hydroxypropylcellulose) (HPC).
Setting [4] is: endpoint: median tumor weight (est.), dose: 100.0 mg/kg/injection, schedule: Q07DX002 (ip), vehicle: saline with Tween-80.
[5] abbreviates: endpoint: median tumor weight (est.), dose: 200.0 mg/kg/injection, schedule: Q07DX002 (ip), vehicle: saline with Tween-80.
The mark [6] stands for this setting: endpoint: median tumor weight (est.), dose: 400.0 mg/kg/injection, schedule: Q07DX002 (ip), vehicle: Klucel (hydroxypropylcellulose) (HPC).
Setting [7] is: endpoint: median tumor weight (est.), dose: 400.0 mg/kg/injection, schedule: Q07DX002 (ip), vehicle: saline with Tween-80.
Where [8] appears, read: endpoint: median tumor weight (est.), dose: 12.5 mg/kg/injection, schedule: Q07DX002 (ip), vehicle: saline with Tween-80.
[9] abbreviates: endpoint: median tumor weight (est.), dose: 25.0 mg/kg/injection, schedule: Q07DX002 (ip), vehicle: saline with Tween-80.
[10] abbreviates: endpoint: median tumor weight (est.), dose: 50.0 mg/kg/injection, schedule: Q07DX002 (ip), vehicle: saline with Tween-80.

Structures are written as SMILES. Several values for one entry are separate records, joined by “and”; a condition that tells them apart may be missing. Equal values may be shown once. Results filed as inconclusive are left out.

In the case of `O=c1[nH]cc(F)c(=O)[nH]1`, the T/C was 59 % of control (endpoint: median tumor weight (est.), dose: 8.75 mg/kg/injection, schedule: Q07DX002 (ip), vehicle: saline); 9 % of control (endpoint: median tumor weight (est.), dose: 24.0 mg/kg/injection, schedule: Q01DX006 (ip), vehicle: saline); 7 % of control (endpoint: median tumor weight (est.), dose: 36.0 mg/kg/injection, schedule: Q01DX006 (ip), vehicle: saline); 48 % of control (endpoint: optimum tumor weight change, dose: 35.0 mg/kg/injection, schedule: Q07DX002 (ip), vehicle: saline); 46 % of control (endpoint: optimum tumor weight change, dose: 70.0 mg/kg/injection, schedule: Q07DX002 (ip), vehicle: saline); 45 % of control (endpoint: optimum tumor weight change, dose: 140.0 mg/kg/injection, schedule: Q07DX002 (ip), vehicle: saline).

With `O=c1[nH]cnc2nc(/N=N/SCCO)[nH]c12`, the T/C was 115 % of control under setting [1], 114 % of control under setting [2] and 101 % of control under setting [3].

On to `CN(C)/N=N/c1nc[nH]c1C(N)=O`, for which the T/C (endpoint: median tumor weight (est.), dose: 90.0 mg/kg/injection, schedule: Q01DX006 (ip), vehicle: carboxymethylcellulose (CMC)) was 47 % of control.

Regarding `COc1cc2c(ccc3c4cc(OC)c(OC)cc4c[n+](C)c23)cc1O`, the T/C is 89 % of control (endpoint: median tumor weight (est.), dose: 100.0 mg/kg/injection, schedule: Q07DX002 (ip), vehicle: suspension in saline) and 81 % of control (endpoint: median tumor weight (est.), dose: 200.0 mg/kg/injection, schedule: Q07DX002 (ip), vehicle: suspension in saline).

On to `CO[C@H]1C[C@](C)(O)Cc2cc3c(c(O)c21)C(=O)c1c(O)cc2c(c1C3=O)O[C@@H]1O[C@@]2(C)[C@H](O)[C@@H](N(C)C)[C@@H]1O`, for which the T/C by setting is: (endpoint: median tumor weight (est.), dose: 12.5 mg/kg/injection, schedule: Q07DX002 (ip), vehicle: other) 124 % of control; (endpoint: median tumor weight (est.), dose: 25.0 mg/kg/injection, schedule: Q07DX002 (ip), vehicle: other) 102 % of control; (endpoint: median tumor weight (est.), dose: 50.0 mg/kg/injection, schedule: Q07DX002 (ip), vehicle: other) 56 % of control; (endpoint: median tumor weight (est.), dose: 100.0 mg/kg/injection, schedule: Q07DX002 (ip), vehicle: other) 19 % of control.

With `CN(C)C1C(=O)C(C(=O)NP(=O)(NCCCO)N(CCCl)CCCl)=C(O)C2(O)C(=O)C3=C(O)c4c(O)cccc4C(C)(O)C3CC12` (stereo unspecified), the T/C runs as follows: under setting [4], 176 % of control; under setting [5], 42 % of control.

For the compound `CCN(CC)CCOC(=O)Cc1cc(OC)cc2c(=O)cc(-c3ccccc3)oc12`, the T/C under setting [3] was 37 % of control and the T/C under setting [6] is 73 % of control.

With `CC1CCC(NC(=O)N(CCCl)N=O)CC1` (stereo unspecified), the T/C was 101 % of control (endpoint: median tumor weight (est.), dose: 4.0 mg/kg/injection, schedule: Q07DX002 (ip), vehicle: Klucel (hydroxypropylcellulose) (HPC)); 69 % of control (endpoint: median tumor weight (est.), dose: 8.0 mg/kg/injection, schedule: Q07DX002 (ip), vehicle: Klucel (hydroxypropylcellulose) (HPC)); 34 % of control (endpoint: median tumor weight (est.), dose: 16.0 mg/kg/injection, schedule: Q07DX002 (ip), vehicle: Klucel (hydroxypropylcellulose) (HPC)); 17 % of control (endpoint: median tumor weight (est.), dose: 32.0 mg/kg/injection, schedule: Q07DX002 (ip), vehicle: Klucel (hydroxypropylcellulose) (HPC)).

As for `Nc1nc(-c2ccccc2)c(Br)c(=O)[nH]1`, the T/C reads like this: under setting [5], 115 % of control; under setting [7], 87 % of control.

For the compound `O=C(CCCCCCC(=O)ON1C(=O)CCC1=O)ON1C(=O)CCC1=O`, the T/C is 74 % of control under setting [8], 69 % of control under setting [9] and 108 % of control under setting [5].

Consider `O=c1[nH]cccc1O`, for which the T/C is, setting by setting: (endpoint: median tumor weight (est.), dose: 62.5 mg/kg/injection, schedule: Q07DX002 (ip), vehicle: saline with Tween-80) 91 % of control; (endpoint: median tumor weight (est.), dose: 125.0 mg/kg/injection, schedule: Q07DX002 (ip), vehicle: saline with Tween-80) 90 % of control and 97 % of control; (endpoint: median tumor weight (est.), dose: 250.0 mg/kg/injection, schedule: Q07DX002 (ip), vehicle: saline with Tween-80) 90 % of control and 95 % of control; (endpoint: median tumor weight (est.), dose: 500.0 mg/kg/injection, schedule: Q07DX002 (ip), vehicle: saline with Tween-80) 95 % of control and 70 % of control; (endpoint: median tumor weight (est.), dose: 1000.0 mg/kg/injection, schedule: Q07DX002 (ip), vehicle: saline with Tween-80) 74 % of control.

Regarding `N=c1c(C(=O)OCc2ccccc2)ncc(CCl)n1O`, the T/C by setting is: under setting [10], 76 % of control; under setting [4], 107 % of control; under setting [7], 113 % of control; (endpoint: median tumor weight (est.), dose: 800.0 mg/kg/injection, schedule: Q07DX002 (ip), vehicle: saline with Tween-80) 72 % of control.

`CCCCCC1c2cc(O)ccc2OC1N1CCOCC1` (stereo unspecified): the T/C is 103 % of control under setting [9], 74 % of control under setting [10], 92 % of control under setting [4] and 81 % of control under setting [7].

As to `Oc1c(Cl)cc(Cl)cc1C=NCCSc1ccc(Cl)cc1`, the T/C under setting [1] is 118 % of control, the T/C under setting [2] is 81 % of control, the T/C under setting [3] was 109 % of control and the T/C under setting [6] is 63 % of control.

Take `CC[C@H](CC[C@@H](C)C1CC[C@H]2[C@@H]3CC=C4C[C@@H](OP(=O)(N5CC5)N5CC5)CC[C@]4(C)[C@H]3CC[C@]12C)C(C)C` (stereo partly specified): the T/C runs as follows: (endpoint: median tumor weight (est.), dose: 225.0 mg/kg/injection, schedule: Q07DX002 (ip), vehicle: saline with Tween-80) 246 % of control; (endpoint: median tumor weight (est.), dose: 450.0 mg/kg/injection, schedule: Q07DX002 (ip), vehicle: saline with Tween-80) 205 % of control; (endpoint: median tumor weight (est.), dose: 900.0 mg/kg/injection, schedule: Q07DX002 (ip), vehicle: saline with Tween-80) 115 % of control.

Regarding `NC(Cn1ccc(=O)c(O)c1)C(=O)O` (stereo unspecified), the T/C by setting is: (endpoint: median tumor weight (est.), dose: 100.0 mg/kg/injection, schedule: Q07DX002 (ip), vehicle: saline) 97 % of control; (endpoint: median tumor weight (est.), dose: 400.0 mg/kg/injection, schedule: Q07DX002 (ip), vehicle: saline) 54 % of control; (endpoint: median tumor weight (est.), dose: 800.0 mg/kg/injection, schedule: Q07DX002 (ip), vehicle: saline) 156 % of control.

`Nc1ccc2ccc(NS(=O)(=O)N3CCCCC3)cc2c1`: the T/C is 108 % of control under setting [10], 39 % of control under setting [5] and 15 % of control under setting [7].

Turning to `CCCNC1=C(C)C(=O)C2=C(C1=O)[C@H](COC(N)=O)[C@]1(OC)[C@@H]3N[C@@H]3CN21`, the T/C reads like this: (endpoint: median tumor weight (est.), dose: 1.5 mg/kg/injection, schedule: Q07DX002 (ip), vehicle: suspension in saline) 73 % of control; (endpoint: median tumor weight (est.), dose: 3.0 mg/kg/injection, schedule: Q07DX002 (ip), vehicle: suspension in saline) 114 % of control; (endpoint: median tumor weight (est.), dose: 6.0 mg/kg/injection, schedule: Q07DX002 (ip), vehicle: suspension in saline) 112 % of control; (endpoint: median tumor weight (est.), dose: 12.0 mg/kg/injection, schedule: Q07DX002 (ip), vehicle: suspension in saline) 33 % of control; (endpoint: median tumor weight (est.), dose: 24.0 mg/kg/injection, schedule: Q07DX002 (ip), vehicle: suspension in saline) 36 % of control.

With `CCCCCCCCCCCCCCCCCC(=O)Nc1ccn(C2OC(CO)C(O)C2O)c(=O)n1` (stereo unspecified), the T/C under setting [8] was 64 % of control, the T/C under setting [9] was 40 % of control, the T/C under setting [10] is 49 % of control and the T/C under setting [4] is 23 % of control.

Regarding `COC(=O)C[C@](O)(CCC(C)(C)O)C(=O)O[C@@H]1C(OC)=C[C@]23CCCN2CCc2cc4c(cc2[C@H]13)OCO4`, the T/C by setting is: (endpoint: median tumor weight (est.), dose: 0.5 mg/kg/injection, schedule: Q07DX002 (ip), vehicle: saline) 117 % of control; (endpoint: median tumor weight (est.), dose: 1.0 mg/kg/injection, schedule: Q07DX002 (ip), vehicle: saline) 54 % of control; (endpoint: median tumor weight (est.), dose: 2.0 mg/kg/injection, schedule: Q07DX002 (ip), vehicle: saline) 40 % of control; (endpoint: median tumor weight (est.), dose: 4.0 mg/kg/injection, schedule: Q07DX002 (ip), vehicle: saline) 14 % of control.

With `NC(=O)C1=CC2C3C=CC2(O)C(=O)OC3O1` (stereo unspecified), the T/C was 73 % of control (endpoint: median tumor weight (est.), dose: 7.5 mg/kg/injection, schedule: Q07DX002 (ip), vehicle: Klucel (hydroxypropylcellulose) (HPC)); 86 % of control (endpoint: median tumor weight (est.), dose: 15.0 mg/kg/injection, schedule: Q07DX002 (ip), vehicle: Klucel (hydroxypropylcellulose) (HPC)); 112 % of control (endpoint: median tumor weight (est.), dose: 30.0 mg/kg/injection, schedule: Q07DX002 (ip), vehicle: Klucel (hydroxypropylcellulose) (HPC)).

These data come from PubChem BioAssay AID214 (DTP/NCI, 2004).
